Test results reported in article PMC8786932, “Bicyclic azetidines target acute and chronic stages of Toxoplasma gondii by inhibiting parasite phenylalanyl t-RNA synthetase” (Nature Communications, 2022).
Several values for one entry are separate records, joined by “and”; a condition that tells them apart may be missing. Equal entries are not always repeated.

Columns and labels:
T. gondii RH-FLuc parent = assay: Luciferase growth assay, parental line of resistance selection; format: cell-based, Toxoplasma gondii; conditions: for luciferase signal (raw): parent
From the text: […]. […] […].

TgPheRS[V262A] = TgPheRS[V262A] (Toxoplasma gondii, UniProt A0A125YPN6, V262A); assay: Enzyme assay, TgPheRS V262A; format: biochemical; conditions: Table S4, V262A; read-out: IC50 (enzyme inhibition)
TgPheRS[M484I] = biological target: T1, TgPheRS[M484I] (Toxoplasma gondii, UniProt A0A125YPN6, M484I); assay: Enzyme assay, TgPheRS M484I; format: biochemical; conditions: for enzyme assay readout (raw): M484I
T1 sequence (A0A125YPN6 1-525 M484I): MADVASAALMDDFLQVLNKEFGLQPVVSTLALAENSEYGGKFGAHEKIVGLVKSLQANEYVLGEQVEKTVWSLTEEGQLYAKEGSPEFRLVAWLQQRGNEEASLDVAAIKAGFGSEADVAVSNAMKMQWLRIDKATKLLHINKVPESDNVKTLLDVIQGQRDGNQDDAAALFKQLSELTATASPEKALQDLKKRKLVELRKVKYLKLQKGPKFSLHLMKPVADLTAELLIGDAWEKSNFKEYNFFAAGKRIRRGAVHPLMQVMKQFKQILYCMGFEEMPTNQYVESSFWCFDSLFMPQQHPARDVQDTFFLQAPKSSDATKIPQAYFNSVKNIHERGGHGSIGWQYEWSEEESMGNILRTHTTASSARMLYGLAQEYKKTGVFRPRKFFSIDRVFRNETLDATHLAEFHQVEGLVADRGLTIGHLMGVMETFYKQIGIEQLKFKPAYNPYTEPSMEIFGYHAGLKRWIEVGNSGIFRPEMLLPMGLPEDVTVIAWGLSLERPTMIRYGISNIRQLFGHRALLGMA
T1 sequence (S8EZ50 1-675 partner): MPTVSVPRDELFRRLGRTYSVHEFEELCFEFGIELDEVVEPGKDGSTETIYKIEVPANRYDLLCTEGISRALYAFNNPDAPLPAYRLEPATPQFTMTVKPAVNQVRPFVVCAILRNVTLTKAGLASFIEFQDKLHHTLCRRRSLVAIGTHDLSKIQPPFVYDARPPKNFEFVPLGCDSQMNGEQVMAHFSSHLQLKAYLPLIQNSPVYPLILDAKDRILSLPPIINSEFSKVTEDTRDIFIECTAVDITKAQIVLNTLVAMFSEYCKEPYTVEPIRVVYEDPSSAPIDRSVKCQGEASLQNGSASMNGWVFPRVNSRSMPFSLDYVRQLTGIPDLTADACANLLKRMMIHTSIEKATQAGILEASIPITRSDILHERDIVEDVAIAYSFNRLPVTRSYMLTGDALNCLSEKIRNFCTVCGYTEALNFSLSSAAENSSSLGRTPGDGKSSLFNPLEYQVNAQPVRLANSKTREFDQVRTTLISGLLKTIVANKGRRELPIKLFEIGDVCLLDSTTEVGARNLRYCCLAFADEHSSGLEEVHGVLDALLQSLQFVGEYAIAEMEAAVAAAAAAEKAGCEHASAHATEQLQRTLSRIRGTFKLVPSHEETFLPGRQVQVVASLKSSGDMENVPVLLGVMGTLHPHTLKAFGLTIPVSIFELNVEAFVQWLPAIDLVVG

recombinant HsPheRS = biological target: T2, recombinant HsPheRS (Homo sapiens, UniProt Q9Y285); assay: Malachite green aminoacylation enzyme assay, HsPheRS; conditions: for Hu PheRS enzyme assay raw signal: replicates
T2 sequence (Q9Y285 1-508): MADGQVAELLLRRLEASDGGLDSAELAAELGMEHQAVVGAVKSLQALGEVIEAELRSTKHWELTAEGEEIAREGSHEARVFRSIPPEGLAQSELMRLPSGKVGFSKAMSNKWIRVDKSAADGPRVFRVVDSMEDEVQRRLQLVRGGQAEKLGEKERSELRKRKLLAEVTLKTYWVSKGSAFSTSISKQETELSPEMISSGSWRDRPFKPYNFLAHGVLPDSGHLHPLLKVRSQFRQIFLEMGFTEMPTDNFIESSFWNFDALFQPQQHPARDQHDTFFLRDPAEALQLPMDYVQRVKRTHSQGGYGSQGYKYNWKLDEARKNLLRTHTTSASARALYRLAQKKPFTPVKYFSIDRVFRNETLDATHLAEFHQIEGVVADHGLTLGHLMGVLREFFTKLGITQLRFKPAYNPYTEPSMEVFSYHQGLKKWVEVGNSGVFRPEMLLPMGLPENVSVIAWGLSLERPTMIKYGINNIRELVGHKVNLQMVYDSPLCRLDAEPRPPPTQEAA
T2 sequence (Q9NSD9 1-589 partner): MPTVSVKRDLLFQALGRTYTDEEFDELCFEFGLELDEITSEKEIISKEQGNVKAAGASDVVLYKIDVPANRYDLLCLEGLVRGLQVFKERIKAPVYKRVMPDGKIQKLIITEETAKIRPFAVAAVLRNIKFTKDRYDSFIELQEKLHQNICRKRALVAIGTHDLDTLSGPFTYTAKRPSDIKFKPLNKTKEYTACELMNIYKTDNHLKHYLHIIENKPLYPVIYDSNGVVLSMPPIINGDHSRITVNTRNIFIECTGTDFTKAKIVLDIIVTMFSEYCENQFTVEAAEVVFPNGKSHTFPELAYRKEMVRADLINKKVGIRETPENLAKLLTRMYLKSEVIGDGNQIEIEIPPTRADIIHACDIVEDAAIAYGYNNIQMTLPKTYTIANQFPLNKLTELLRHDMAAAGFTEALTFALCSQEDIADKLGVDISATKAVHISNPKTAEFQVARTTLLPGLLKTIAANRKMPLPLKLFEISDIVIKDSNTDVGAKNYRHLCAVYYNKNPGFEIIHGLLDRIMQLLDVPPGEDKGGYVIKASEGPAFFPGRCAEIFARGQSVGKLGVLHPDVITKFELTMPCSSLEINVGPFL

`COc1ccc(NC(=O)N2CCCCN3[C@H](CN(C)C)[C@H](c4ccc(C#Cc5ccccc5)cc4)[C@@H]3C2)cc1` [BRD7929] was tested. Which EC50 (T. gondii RH-FLuc parent; Toxoplasma gondii, read-out: EC50, parent RH-FLuc) did it give?
Its EC50 is 14 nM.

What about the “luciferase signal (raw)” value (T. gondii RH-FLuc parent; concentration 2.222222) of the same compound?
The value was 5 and 6 and 7 and 8.

What about the “luciferase signal (raw)” value (T. gondii RH-FLuc parent; concentration 6.666667) of the same compound?
The value was 5 and 4 and 6.

What about the “luciferase signal (raw, Fig 3B source data)” value (T. gondii RH-FLuc parent; {}) of the same compound?
Its value is 5.

And the IC50 (TgPheRS[V262A])?
The IC50 was 207 nM.

What about the “enzyme assay readout (raw)” value (TgPheRS[M484I]; 0.000050 μM) of the same compound?
The value was 0.2597 and 0.2568 and 0.2561.

What about the “enzyme assay readout (raw)” value (TgPheRS[M484I]; 0.000500 μM) of the same compound?
The value was 0.2555 and 0.2526 and 0.2544.

What about the “enzyme assay readout (raw)” value (TgPheRS[M484I]; 0.005000 μM) of the same compound?
The value was 0.2503 and 0.2478 and 0.2487.

What about the “enzyme assay readout (raw)” value (TgPheRS[M484I]; 0.050000 μM) of the same compound?
Its value is 0.2472 and 0.2441 and 0.2410.

And the “enzyme assay readout (raw)” value (TgPheRS[M484I]; 0.500000 μM)?
Its value is 0.2388 and 0.2402 and 0.2378.

And the “enzyme assay readout (raw)” value (TgPheRS[M484I]; 5.000000 μM)?
Its value is 0.2341 and 0.2345 and 0.2337.

What about the “enzyme assay readout (raw)” value (TgPheRS[M484I]; 50.000000 μM) of the same compound?
The value was 0.2266 and 0.2241.

And the IC50 (TgPheRS[M484I]; Table S4, M484I, read-out: IC50 (enzyme inhibition))?
Its IC50 is 135 nM.

And the IC50 (recombinant HsPheRS)?
The IC50 was 22300 nM.

And the “Hu PheRS enzyme assay raw signal” value (recombinant HsPheRS; BRD7929 0.000001 μM)?
The value was 0.7213 and 0.8235 and 0.7680.

And the “Hu PheRS enzyme assay raw signal” value (recombinant HsPheRS; BRD7929 0.000010 μM)?
The value was 0.6210 and 0.7246 and 0.7585.

What about the “Hu PheRS enzyme assay raw signal” value (recombinant HsPheRS; BRD7929 0.000100 μM) of the same compound?
Its value is 0.6366 and 0.8166 and 0.8094.

And the “Hu PheRS enzyme assay raw signal” value (recombinant HsPheRS; BRD7929 0.001000 μM)?
Its value is 0.7178 and 0.7568 and 0.6293.

What about the “Hu PheRS enzyme assay raw signal” value (recombinant HsPheRS; BRD7929 0.010000 μM) of the same compound?
Its value is 0.4951 and 0.5827 and 0.6166.

And the “Hu PheRS enzyme assay raw signal” value (recombinant HsPheRS; BRD7929 0.100000 μM)?
The value was 0.5035 and 0.5467 and 0.5776.

And the “Hu PheRS enzyme assay raw signal” value (recombinant HsPheRS; BRD7929 1.000000 μM)?
Its value is 0.4827 and 0.4553 and 0.5046.

And the “Hu PheRS enzyme assay raw signal” value (recombinant HsPheRS; BRD7929 10.000000 μM)?
The value was 0.4350 and 0.4477 and 0.4390.

What about the “Hu PheRS enzyme assay raw signal” value (recombinant HsPheRS; BRD7929 100.000000 μM) of the same compound?
The value was 0.4107 and 0.4228 and 0.4405.
